From US12552694B2, “Use of trivalent metals to enhance aquatic pesticide efficacy, surface water, and sediment quality while minimizing risk to aquatic biota” (SePRO Corporation, priority 2022, dated 2026)
Where two headings read alike, the source gives them in different places. Each block holds one compound with its values, some of them ahead of it.

Legend:
[1] = Example 4: bound La and Ce over time and final pH (FIG. 1); type: physicochemical; conditions: after the final samples (30 minutes), continuously stirred; control 5.6
[2] = Example 1: capacity of additives to bind dissolved La and Ce (ICP-OES); type: physicochemical
[3] = system: duckweed (Lemna spp.); test: Example 7: duckweed plant coverage (Canopeo) after herbicides with and without La/Ce; type: in vivo; conditions: for Plant coverage, 3 Days Post: 3 days post treatment; for Plant coverage, 5 Days Post: 5 days post treatment; for Plant coverage, 7 Days Post: 7 days post treatment; for Plant coverage, Pre-Treat.: prior to treatments (baseline)
[4] = system: duckweed; conditions: 24 hours
Description: In one exemplary experiment, 16-oz cups were filled with 400 mL of well water containing approximately 100 μg-P/L as phosphate. One cup was left as the no biomass control and approximately 8 g (±0.5 g) of actively growing duckweed were added to the other cups. One cup was left as a control and diquat (as Weedtrine® D) was added to each of the other cups at the following rates: 50 μg/L. 100 μg/L, 200 μg/L, and 300 μg/L. These samples were then placed under artificial lighting with a scheduled 16-hour light period and 8-hour dark period. […] Samples then were briefly stirred and allowed to sit under the lighting. After 2 hours, water samples were collected with a syringe, filtered with a 0.22 μm nylon filter, acidified with nitric acid, and analyzed for lanthanum and cerium concentration.

[5] = test sample: La/Ce stock in 50 mL deionized water with 90-110 mg additive

Compound: [Ca+2].[OH-].[OH-] [Calcium hydroxide, calcium hydroxide]
pH of beaker [1]: 8.7 (±0.1)
pH [2]: 14

pH [2]: 6.5
Compound: O=C([O-])C(O)C(O)C(=O)[O-].[Na+].[Na+] (centres unmarked) [Sodium tartrate, sodium tartrate]

pH [2]: 8
Compound: O=C([O-])CC(O)(CC(=O)[O-])C(=O)[O-].[Na+].[Na+].[Na+] [Sodium citrate, sodium citrate]

Compound: O.O=C([O-])C(=O)[O-].[K+].[K+] [Potassium oxalate (monohydrate), potassium oxalate (monohydrate)]
pH [2]: 7

Compound: copper ethanolamine [Copper ethanolamine only]
% Change in plant coverage ([3]; 3 Days Post vs pre-treatment): −2%
% Change in plant coverage ([3]; 5 Days Post vs pre-treatment): −89%
% Change in plant coverage ([3]; 7 Days Post vs pre-treatment): −89%
Plant coverage, 3 Days Post [3]: 35%
Plant coverage, 5 Days Post [3]: 4%
Plant coverage, 7 Days Post [3]: 4%
Plant coverage, Pre-Treat. [3]: 35%

Compound: [O]=[Mg] [Magnesium oxide, magnesium oxide]
pH of beaker [1]: 8.0 (±0.1)
pH [2]: 7.5

Compound: Cc1nn(-c2cc(CC(Cl)C(=O)O)c(Cl)cc2F)c(=O)n1C(F)F (centres unmarked) [Carfentrazone only, carfentrazone]
% Change in plant coverage ([3]; 3 Days Post vs pre-treatment): 13%
% Change in plant coverage ([3]; 5 Days Post vs pre-treatment): −29%
% Change in plant coverage ([3]; 7 Days Post vs pre-treatment): −17%
Plant coverage, 3 Days Post [3]: 39%
Plant coverage, 5 Days Post [3]: 24%
Plant coverage, 7 Days Post [3]: 29%
Plant coverage, Pre-Treat. [3]: 34%

Compound: c1cc[n+]2c(c1)-c1cccc[n+]1CC2 [Diquat only, diquat]
Perceived injury ([4]; 50 μg/L diquat): 20%
Perceived injury ([4]; 100 μg/L diquat): 40%
Perceived injury ([4]; 200 μg/L diquat): 50%
Perceived injury ([4]; 300 μg/L diquat): 80%
% Change in plant coverage ([3]; 3 Days Post vs pre-treatment): −75%
% Change in plant coverage ([3]; 5 Days Post vs pre-treatment): −89%
% Change in plant coverage ([3]; 7 Days Post vs pre-treatment): −92%
Plant coverage, 3 Days Post [3]: 10%
Plant coverage, 5 Days Post [3]: 4%
Plant coverage, 7 Days Post [3]: 3%
Plant coverage, Pre-Treat. [3]: 40%

pH [2, 5]: 13
Compound: O=[Si]([O-])[O-].[Na+].[Na+] [Sodium metasilicate (anhydrous), sodium metasilicate (anhydrous)]

Compound: O=C([O-])[O-].[Ca+2] [Calcium carbonate, calcium carbonate]
pH [2]: 7.5

pH [2, 5]: 7
Compound: NC(=O)CC[C@H](N)C(=O)O [Glutamine, glutamine]

Compound: [Na+].[OH-] [Sodium hydroxide, sodium hydroxide]
pH [2]: 14

Compound: fluridone [Fluridone only]
% Change in plant coverage ([3]; 3 Days Post vs pre-treatment): −8%
% Change in plant coverage ([3]; 5 Days Post vs pre-treatment): −15%
% Change in plant coverage ([3]; 7 Days Post vs pre-treatment): −14%
Plant coverage, 3 Days Post [3]: 23%
Plant coverage, 5 Days Post [3]: 22%
Plant coverage, 7 Days Post [3]: 22%
Plant coverage, Pre-Treat. [3]: 25%

pH [2]: 7
Compound: C=CC(=O)[O-].[Na+] [Sodium acrylate, sodium acrylate]
